From article PMC7203245, “Lacosamide intake during pregnancy increases the incidence of foetal malformations and symptoms associated with schizophrenia in the offspring of mice” (Scientific Reports, 2020)
Marks after values point to notes of the source that are not given here.

What was measured:
Type in all cases: in vivo, mice
developing embryos = experiment: Embryo development at E14.5 after daily LCM administration to dams (litters, resorptions, litter size, malformations); settings: for CR length (cm): crown-rump
Procedure: Thus, we used 10, 40, 80 and 120 mg/kg in mice, which corresponded to 56.7, 227, 454 and 681 mg/day in humans, considering an average weight of human to be 70 kg and that of mice to be 30 gr[52],[55]. Controls were administered the vehicle alone: saline solution 0.9% w/v. […] A total of 32 dams were initially treated daily, two days before mating and until the 14th day post-coitus. […] In the breastfeeding period, females were not under treatment given that a person will bottle feed the baby if they were on medication.
Maternal weights were assessed at the end of the treatment periods. After 14.5 days of gestation (embryonic day14.5, E14.5), blood was extracted from the orbital sinus of the pregnant dams under anaesthesia (70 mg/kg Thiobarbital: Braun Medical S.A. Spain), as described previously[56] and sacrificed by neck dislocation immediately after. Blood samples were centrifuged immediately, and the serum was collected and stored at -80 °C for further chemical analysis.
The E14.5 embryos were collected and fixed in 4% paraformaldehyde for 4 h and then kept at 4 °C in 70% ethanol. The litter size of each dam was recorded, and embryos were assessed for external malformations and photographed on a stereomicroscope (SteREO Discovery V8 + AxioCam Erc8, Zeiss, Oberkochen, Germany). The crown-rump lengths of embryos were measured in the photographs using ImageJ software (downloaded as a free software package from the public domain: http://rsb.info.nih.gov/ij/download.html) and based on the reference points described previously. Embryos were then embedded in paraffin, sectioned at 10, 7 and 5 μm, and stained with Ehrlich Haematoxylin & Eosin (H&E) for histology analysis. Representative sections were selected from at least three embryos for each condition and photographed on an Olympus (Tokyo, Japan) BX-61 photomicroscope.

[1] = Nissl staining and immunohistochemistry (calbindin, calretinin, doublecortin) of adult brain
Procedure: (§1) As formerly described by[59], mice from each experimental group were anesthetized with 4% of chloral hydrate (10 µL/g of weight) and trans-cardiacally perfused with cold saline. Brains were removed and fixed by immersion for 24 h at 4 °C in 4% paraformaldehyde prepared in phosphate-buffered saline (PBS). Tissue was cryoprotected in 30% sucrose-PBS for 2 days at 4 °C and coronal brain sections (50 µm) were then processed for Nissl staining and free-floating immunohistochemistry. Sections encompassed roughly between 2.80 mm to -2.80 mm from Bregma[60] were selected for Toluidine blue staining and immunohistochemical processing. Brain slices from all animals were processed simultaneously in each assay. Immunohistochemistry assays were performed with free-floating sections and an avidin-biotinylated peroxidase method. Primary antibodies used were calbindin (CB, 1:500, Santa Cruz, sc-365360), calretinin (CR, 1:1000, Santa Cruz, sc-26512) and doublecortin (DCX, 1:500, Santa Cruz, sc-8066). Secondary biotinylated antibodies were used (1:500). […] Several control sections were processed without the primary antibody, showing no signal. To minimize variability, at least 2 sections from each area were analysed per animal on a bright-field DMRB RFY HC microscope (Leica) using a 10X objective. For DCX quantification images were taken using a 20X objective and later a whole image of dentate gyrus was reconstructed using Photoshop tiling function. In each section, the total number of labelled cells per area of tissue was quantified using Image-J software (downloaded as a free software package from the public domain: http://rsb.info.nih.gov/ij/download.html). 6 different animals were processed for each primary antibody and pharmacologic treatment from 10 litters.

adult mouse neocortex = experiment: as above
Procedure: as §1

[2] = LCM and related compounds (RC) in embryos and mothers' serum by high-resolution MS/MSe; settings: Maternal Dose 10 mg/kg
Procedure: Samples were extracted as described previously[25] with slight modifications. Briefly, embryos were rinsed with cold saline and ultrapure water, and their wet-weight was determined. […] The mixture was vortexed vigorously for 3 min and centrifuged at 13,000 g for 5 min. The supernatant was transferred to a new Eppendorf tube and evaporated to dryness in a stream of nitrogen gas. The residue was reconstituted with 50 µL of LC-MS Ultrapure water, vortexed for 20 s and centrifuged at 13,000 g for 5 min. The supernatant was transferred to a conic micro insert to be injected onto the UHPLC system.
MS spectra data were collected between m/z 50 and 1000, and MS/MS spectra were registered between 50-300 Da. […] The MS^e procedure was used to identify metabolites in positive ionization mode. UPLC–QTOF-MS^e detection collects data using two scan functions, providing fragment ion information without precursor ion selection. A characteristic m/z in the low energy function allows identification through the fragment ions obtained with the high collision energy function. Two functions were acquired at different collision energies: a low energy function obtained at 2 eV; and a high-energy function obtained using a collision energy ramp ranging from 15 to 30 eV and spectra data collected between m/z 50 and 800. The data station operating the software was a MassLynx version 4.1, while metabolites were identified by means of Metabolynx XS (Waters, Micromass, Manchester, UK).
In this work the following routes were selected for these searches: phase I metabolites Reduction (+H2), Hydroxylation (O), Hydration (+H2O), 2xHydroxylation (+O2), Deacetylation (-C2H2O) and Demethylation (-CH2); and phase II metabolites Acetylation (+C2H2O) and Glucuronide (+C6H8O6).

[3] = 10 mg/kg LCM daily i.p. to dams
[4] = 40 mg/kg LCM daily i.p. to dams
[5] = 80 mg/kg LCM daily i.p. to dams
[6] = 120 mg/kg LCM daily i.p. to dams
[7] = High doses (80 or 120 mg/kg LCM daily i.p. to dams)
[8] = High doses (80 or 120 mg/kg LCM daily i.p. to dams), mean ± S.E.M., p < 0.05
[9] = Low doses (10 or 40 mg/kg LCM daily i.p. to dams)

In the case of `COC[C@@H](NC(C)=O)C(=O)NCc1ccccc1` [LCM, R-2-acetamido-N-benzyl-3-methoxypropionamide], the “Emb (no.)” value (developing embryos; [3]) was 117 no, the “Lost Litter (no.)” value (developing embryos; [3]) was 0 no and the “Malformation (%)” value (developing embryos; [3]) was 4.3%. The “Resorpt (%)” value (developing embryos; [3]) was 4%, the “CR length (cm)” value (developing embryos; [3]) was 1.18 cm and the “Emb (no.)” value (developing embryos; [4]) was 67 no. The “Lost Litter (no.)” value (developing embryos; [4]) was 0 no, the “Malformation (%)” value (developing embryos; [4]) was 7.4% and the “Resorpt (%)” value (developing embryos; [4]) was 1.5%. The “CR length (cm)” value (developing embryos; [4]) was 1.09 cm, the “Emb (no.)” value (developing embryos; [5]) was 41 no and the “Lost Litter (no.)” value (developing embryos; [5]) was 1 no. For the same compound, the “Malformation (%)” value (developing embryos; [5]) was 12.2%, the “Resorpt (%)” value (developing embryos; [5]) was 0% and the “CR length (cm)” value (developing embryos; [5]) was 1.03 cm. For the same compound, the “Emb (no.)” value (developing embryos; [6]) was 73 no, the “Lost Litter (no.)” value (developing embryos; [6]) was 1 no and the “Malformation (%)” value (developing embryos; [6]) was 2.7%. The “Resorpt (%)” value (developing embryos; [6]) was 2.5%, the “CR length (cm)” value (developing embryos; [6]) was 1.08 cm and the “Emb (no.)” value (developing embryos; [7]) was 114 no. For the same compound, the “Lost Litter (no.)” value (developing embryos; [7]) was 2 no, the “Malformation (%)” value (developing embryos; [7]) was 6.1% and the “Resorpt (%)” value (developing embryos; [7]) was 1.75%. The “CR length (cm)” value (developing embryos; [8]) was 1.06 ± 0.08^b cm, the Emb/dam (developing embryos; [8]) was 9.5 ± 0.4^b and the “Emb (no.)” value (developing embryos; [9]) was 184 no. The “Lost Litter (no.)” value (developing embryos; [9]) was 0 no, the “Malformation (%)” value (developing embryos; [9]) was 5.4% and the “Resorpt (%)” value (developing embryos; [9]) was 3.2%. For the same compound, the “CR length (cm)” value (developing embryos; Low doses (10 or 40 mg/kg LCM daily i.p. to dams), mean ± S.E.M.) was 1.1 ± 0.1 cm, the number of embryos/litter (developing embryos; high doses of LCM (80 or 120 mg/kg), p = 0.02) was 9.5 ± 0.4 embryo/litter and the number of embryos/litter (developing embryos; low doses of LCM (10 or 40 mg/kg)) was 12.2 ± 0.1 embryos/litter. The “DCX labelling in ventral DG” value ([1]; 40 mg/kg in utero) was 13.46 ± 1.03 cells/100 µm², the “DCX labelling in ventral DG” value ([1]; 120 mg/kg in utero) was 9.75 ± 0.85 cells/100 µm² and the “number of CR neurons in PrL cortex” value (adult mouse neocortex; 40 mg/kg in utero) was 10.83 ± 1.12 cells/100 µm². For the same compound, the “number of CR neurons in RSA cortex” value (adult mouse neocortex; 40 mg/kg in utero) was 16.18 ± 1.23 cells/100 µm², the “number of calbindin (CB) labelled neurons in the amygdala” value (adult mouse neocortex; 40 mg/kg in utero) was 23.28 ± 2.98 cells/100 µm^2 and the “number of CR neurons in PrL cortex” value (adult mouse neocortex; 120 mg/kg in utero) was 13.03 ± 1.08 cells/100 µm². For the same compound, the “number of CR neurons in RSA cortex” value (adult mouse neocortex; 120 mg/kg in utero) was 16.94 ± 0.7 cells/100 µm², the “number of calbindin (CB) labelled neurons in the amygdala” value (adult mouse neocortex; 120 mg/kg in utero) was 13 ± 1.8 cells/100 µm^2 and the “Embryos in which the LCM compound is present” value [2] was “Embryo1 and 2”.
